Read-outs that look alike come from different tables or passages of the source.
What was measured:
BRAF V600E = molecular target: T1, BRAF V600E (Homo sapiens, UniProt P15056, V600E); assay: Cellular assay of target protein degradation, T-Rex 293 cells stably transfected with HA-BRAF_V600E (HA immunofluorescence, high content imaging); type: cell-based
T1 construct: expressed in transfected cells
Outline: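 Read-out is anti-HA immunofluorescence quantified by high-content imaging, giving half-maximal degradation concentration (DC50) and maximum degradation (Dmax, percent of control). Cells expressed the construct under 1 ng/mL doxycycline and received compound (1 μM to 0.1 nM final, 0.1% DMSO) for 24 h at 37 °C.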

BRAF G466V = molecular target: T2, BRAF G466V (Homo sapiens, UniProt P15056, G466V); assay: Cellular assay of target protein degradation, T-Rex 293 cells stably transfected with HA-BRAF G466V (HA immunofluorescence, high content imaging); type: cell-based
T2 construct: expressed in transfected cells
T2 sequence (P15056 whole entry G466V): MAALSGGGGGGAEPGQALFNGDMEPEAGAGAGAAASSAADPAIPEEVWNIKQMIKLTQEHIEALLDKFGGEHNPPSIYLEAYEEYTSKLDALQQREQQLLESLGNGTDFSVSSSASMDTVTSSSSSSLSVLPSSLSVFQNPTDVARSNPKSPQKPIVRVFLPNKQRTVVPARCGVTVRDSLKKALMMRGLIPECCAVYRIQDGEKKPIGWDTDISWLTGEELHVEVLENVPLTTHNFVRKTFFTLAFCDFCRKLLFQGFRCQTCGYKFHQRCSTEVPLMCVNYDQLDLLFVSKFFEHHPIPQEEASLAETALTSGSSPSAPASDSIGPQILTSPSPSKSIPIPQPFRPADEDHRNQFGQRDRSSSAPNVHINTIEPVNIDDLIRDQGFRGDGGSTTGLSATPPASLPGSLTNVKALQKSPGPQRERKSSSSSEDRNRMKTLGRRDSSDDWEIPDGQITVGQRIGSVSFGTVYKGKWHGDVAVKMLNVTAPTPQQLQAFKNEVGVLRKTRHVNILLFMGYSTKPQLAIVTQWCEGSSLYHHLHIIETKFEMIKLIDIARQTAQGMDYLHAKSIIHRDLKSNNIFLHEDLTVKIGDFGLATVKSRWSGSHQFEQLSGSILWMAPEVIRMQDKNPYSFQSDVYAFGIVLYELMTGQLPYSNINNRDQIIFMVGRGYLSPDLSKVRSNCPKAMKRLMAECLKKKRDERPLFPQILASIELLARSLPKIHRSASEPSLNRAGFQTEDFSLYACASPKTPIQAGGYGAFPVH
Outline: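 First, stably transfected T-Rex 293 cells were plated with 0.75 ng/mL doxycycline and grown for 24 hours. Next, compound (final 30 nM to 3 pM, 0.1% DMSO) was added for another 24 hours at 37° C. Finally, cells were fixed, stained for HA and imaged.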

[1] = half maximal degradation, T-Rex 293 HA-BRAF V600E; read-out: BRaf V600E DC50
[2] = maximum degradation observed, T-Rex 293 HA-BRAF V600E
[3] = half maximal degradation, T-Rex 293 HA-BRAF G466V; read-out: BRaf G466V DC50
[4] = maximum degradation observed, T-Rex 293 HA-BRAF G466V

T1 sequence (P15056 whole entry V600E): as the sequence (P15056 whole entry G466V) above, with V466G, V600E counted along it

| Compound | DC50 (BRAF V600E; [1]) [nM] | Dmax (BRAF V600E; [2]) [%] | DC50 (BRAF G466V; [3]) [nM] | Dmax (BRAF G466V; [4]) [%] | DC50 (BRAF V600E; read-out: BRaf V600E DC50; half maximal degradation, T-Rex 293 HA-BRAF V600E) [nM] | DC50 (BRAF G466V; read-out: BRaf G466V DC50; half maximal degradation, T-Rex 293 HA-BRAF G466V) [nM] |
| --- | --- | --- | --- | --- | --- | --- |
| O=C1CCC(N2Cc3cc(C(O)CN4CCN(c5ccc(-c6cnc7[nH]cc(C(=O)c8c(F)ccc(NS(=O)(=O)N9CC[C@@H](F)C9)c8F)c7c6)cc5)CC4)ccc3C2=O)C(=O)N1 (stereo partly drawn) [Compound 32, (3R)-N-(3-{5-[4-(4-{2-[2-(2,6-dioxopiperidin-3-yl)-1-oxo-2,3-dihydro-1H-isoindol-5-yl]-2-hydroxyethyl}piperazin-1-yl)phenyl]-1H-pyrrolo[2,3-b]pyridin-3-carbonyl}-2,4-difluorophenyl)-3-fluoropyrrolidine-1-sulfonamide] | < 5 | 35 to 70 | 1 to 10 | 35 to 70 | – | – |
| O=C1CCC(N2Cc3cc(N4CCC(COCC5CCN(c6ccc(-c7cnc8[nH]cc(C(=O)c9c(F)ccc(NS(=O)(=O)N%10CC[C@@H](F)C%10)c9F)c8c7)cc6)CC5)CC4)ccc3C2=O)C(=O)N1 (stereo partly drawn) [Compound 143, (3R)-N-{3-[5-(4-{4-[({1-[2-(2,6-dioxopiperidin-3-yl)-1-oxo-2,3-dihydro-1H-isoindol-5-yl]piperidin-4-yl}methoxy)methyl]piperidin-1-yl}phenyl)-1H-pyrrolo[2,3-b]pyridine-3-carbonyl]-2,4-difluorophenyl}-3-fluoropyrrolidine-1-sulfonamide] | 5 to 50 | < 35 | 10 to 30 | 35 to 70 | – | – |
| O=C1CCC(N2Cc3cc(C4CCN(CC5CCN(c6ccc(-c7cnc8[nH]cc(C(=O)c9c(F)ccc(NS(=O)(=O)N%10CC[C@@H](F)C%10)c9F)c8c7)cc6F)CC5)CC4)ccc3C2=O)C(=O)N1 (stereo partly drawn) [Compound 36, (3R)—N-[3-(5-[4-[4-([4-[2-(2,6-dioxopiperidin-3-yl)-1-oxo-3H-isoindol-5-yl]piperidin-1-yl]methyl)piperidin-1-yl]-3-fluorophenyl]-1H-pyrrolo[2,3-b]pyridine-3-carbonyl)-2,4-difluorophenyl]-3-fluoropyrrolidine-1-sulfonamide] | – | 35 to 70 | – | 35 to 70 | 5 to 50 | < 1 |
| Cn1c(=O)n(C2CCC(=O)NC2=O)c2cccc(C3CCN(CC4CCN(c5ccc(-c6cnc7[nH]cc(C(=O)c8c(F)ccc(NS(=O)(=O)N9CC[C@@H](F)C9)c8F)c7c6)cc5)CC4)CC3)c21 (stereo partly drawn) [Compound 337, (3R)—N-(3-(5-(4-(4-((4-(1-(2,6-dioxopiperidin-3-yl)-3-methyl-2-oxo-2,3-dihydro-1H-benzo[d]imidazol-4-yl)piperidin-1-yl)methyl)piperidin-1-yl)phenyl)-1H-pyrrolo[2,3-b]pyridine-3-carbonyl)-2,4-difluorophenyl)-3-fluoropyrrolidine-1-sulfonamide] | 5 to 50 | 35 to 70 | 1 to 10 | > 70 | – | – |
| O=C1CCC(N2Cc3cc(N4CCC(N5CCCC56CN(c5ccc(-c7cnc8[nH]cc(C(=O)c9c(F)ccc(NS(=O)(=O)N%10CC[C@@H](F)C%10)c9F)c8c7)cc5)C6)CC4)ccc3C2=O)C(=O)N1 (stereo partly drawn) [Compound 66, (3R)-N-(3-{5-[4-(5-{1-[2-(2,6-dioxopiperidin-3-yl)-1-oxo-2,3-dihydro-1H-isoindol-5-yl]piperidin-4-yl}-2,5-diazaspiro[3.4]octan-2-yl)phenyl]-1H-pyrrolo[2,3-b]pyridine-3-carbonyl}-2,4-difluorophenyl)-3-fluoropyrrolidine-1-sulfonamide] | > 500 | – | 10 to 30 | > 70 | – | – |
| O=C1CCC(N2Cc3cc(N4CCC(CN5CCN(Cc6ccc(-c7cnc8[nH]cc(C(=O)c9c(F)ccc(NS(=O)(=O)N%10CC[C@@H](F)C%10)c9F)c8c7)cc6)CC5)CC4)ccc3C2=O)C(=O)N1 (stereo partly drawn) [Compound 146, (3R)-N-{3-[5-(4-{[4-({1-[2-(2,6-dioxopiperidin-3-yl)-1-oxo-2,3-dihydro-1H-isoindol-5-yl]piperidin-4-yl}methyl)piperazin-1-yl]methyl}phenyl)-1H-pyrrolo[2,3-b]pyridine-3-carbonyl]-2,4-difluorophenyl}-3-fluoropyrrolidine-1-sulfonamide] | 5 to 50 | 35 to 70 | 1 to 10 | > 70 | – | – |
| O=C1CCC(N2Cc3cc(N4CC(CN5CCN(C6CCN(c7ccc(-c8cnc9[nH]cc(C(=O)c%10c(F)ccc(NS(=O)(=O)N%11CC[C@@H](F)C%11)c%10F)c9c8)cc7)CC6)CC5)C4)ccc3C2=O)C(=O)N1 (stereo partly drawn) [Compound 209, (3R)—N-{3-[5-(4-{4-[4-({1-[2-(2,6-dioxopiperidin-3-yl)-1-oxo-2,3-dihydro-1H-isoindol-5-yl]azetidin-3-yl}methyl)piperazin-1-yl]piperidin-1-yl}phenyl)-1H-pyrrolo[2,3-b]pyridine-3-carbonyl]-2,4-difluorophenyl}-3-fluoropyrrolidine-1-sulfonamide] | 5 to 50 | < 35 | 1 to 10 | 35 to 70 | – | – |
| O=C1CCC(NC(=O)c2ccc(OCCCCN3CCN(c4ccc(-c5cnc6[nH]cc(C(=O)c7c(F)ccc(NS(=O)(=O)N8CC[C@@H](F)C8)c7F)c6c5)cc4)CC3)cc2F)C(=O)N1 (stereo partly drawn) [Compound 350, 4-{4-[4-(4-{3-[2,6-difluoro-3-({[(3R)-3-fluoropyrrolidin-1-yl]sulfonyl}amino)benzoyl]-1H-pyrrolo[2,3-b]pyridin-5-yl}phenyl)piperazin-1-yl]butoxy}-N-(2,6-dioxopiperidin-3-yl)-2-fluorobenzamide] | 50 to 500 | < 35 | > 30 | – | – | – |
| CCN(C)S(=O)(=O)Nc1ccc(F)c(C(=O)c2c[nH]c3ncc(-c4ccc(N5CCC(CN6CCC(c7ccc8c(c7)CN(C7CCC(=O)NC7=O)C8=O)CC6)CC5)cc4)cc23)c1F (stereo not drawn) [Compound 191, 3-(5-{1-[(1-{4-[3-(3-{[ethyl(methyl)sulfamoyl]amino}-2,6-difluorobenzoyl)-1H-pyrrolo[2,3-b]pyridin-5-yl]phenyl}piperidin-4-yl)methyl]piperidin-4-yl}-1-oxo-2,3-dihydro-1H-isoindol-2-yl)piperidine-2,6-dione] | 5 to 50 | 35 to 70 | < 1 | > 70 | – | – |
| O=C1CCC(N2Cc3cc(N4CCC(CN5CCC(Cc6ccc(-c7cnc8[nH]cc(C(=O)c9c(F)ccc(NS(=O)(=O)N%10CC[C@@H](F)C%10)c9F)c8c7)cc6)CC5)CC4)ccc3C2=O)C(=O)N1 (stereo partly drawn) [Compound 154, (3R)-N-{3-[5-(4-{[1-({1-[2-(2,6-dioxopiperidin-3-yl)-1-oxo-2,3-dihydro-1H-isoindol-5-yl]piperidin-4-yl}methyl)piperidin-4-yl]methyl}phenyl)-1H-pyrrolo[2,3-b]pyridine-3-carbonyl]-2,4-difluorophenyl}-3-fluoropyrrolidine-1-sulfonamide] | 5 to 50 | 35 to 70 | < 1 | > 70 | – | – |
| COc1cc([C@H](O)CCN2CCN(c3ccc(-c4cnc5[nH]cc(C(=O)c6c(F)ccc(NS(=O)(=O)N7CC[C@@H](F)C7)c6F)c5c4)cc3)CC2)cc2c1C(=O)N([C@H]1CCC(=O)NC1=O)C2 [Compound 186, (3R)-N-{3-[5-(4-{4-[(3R)-3-{2-[(3S)-2,6-dioxopiperidin-3-yl]-7-methoxy-1-oxo-2,3-dihydro-1H-isoindol-5-yl}-3-hydroxypropyl]piperazin-1-yl}phenyl)-1H-pyrrolo[2,3-b]pyridine-3-carbonyl]-2,4-difluorophenyl}-3-fluoropyrrolidine-1-sulfonamide] | 50 to 500 | 35 to 70 | 1 to 10 | > 70 | – | – |
| O=C1CC[C@H](N2Cc3cc(C4CCN(CC5CCN(c6ccc(-c7cnc8[nH]cc(C(=O)c9c(F)ccc(NS(=O)(=O)N%10CC[C@@H](F)C%10)c9F)c8c7)cc6F)CC5)CC4)ccc3C2=O)C(=O)N1 [Compound 87, (3R)-N-{3-[5-(4-{4-[(4-{2-[(3S)-2,6-dioxopiperidin-3-yl]-1-oxo-2,3-dihydro-1H-isoindol-5-yl}piperidin-1-yl)methyl]piperidin-1-yl}-3-fluorophenyl)-1H-pyrrolo[2,3-b]pyridine-3-carbonyl]-2,4-difluorophenyl}-3-fluoropyrrolidine-1-sulfonamide] | < 5 | 35 to 70 | < 1 | > 70 | – | – |
| O=C1CCN(c2ccc(N3CCC(CN4CC5(C4)CN(c4ccc(-c6cnc7[nH]cc(C(=O)c8c(F)ccc(NS(=O)(=O)N9CC[C@@H](F)C9)c8F)c7c6)cc4)C5)CC3)cc2F)C(=O)N1 [Compound 156, (3R)-N-[3-(5-{4-[6-({1-[4-(2,4-dioxo-1,3-diazinan-1-yl)-3-fluorophenyl]piperidin-4-yl}methyl)-2,6-diazaspiro[3.3]heptan-2-yl]phenyl}-1H-pyrrolo[2,3-b]pyridine-3-carbonyl)-2,4-difluorophenyl]-3-fluoropyrrolidine-1-sulfonamide] | 5 to 50 | 35 to 70 | 1 to 10 | > 70 | – | – |
| O=C1CCC(N2Cc3cc(N4CC(CN5CCC(Cc6ncc(-c7cnc8[nH]cc(C(=O)c9c(F)ccc(NS(=O)(=O)N%10CC[C@@H](F)C%10)c9F)c8c7)cn6)CC5)C4)ccc3C2=O)C(=O)N1 (stereo partly drawn) [Compound 194, (3R)-N-{3-[5-(2-{[1-({1-[2-(2,6-dioxopiperidin-3-yl)-1-oxo-2,3-dihydro-1H-isoindol-5-yl]azetidin-3-yl}methyl)piperidin-4-yl]methyl}pyrimidin-5-yl)-1H-pyrrolo[2,3-b]pyridine-3-carbonyl]-2,4-difluorophenyl}-3-fluoropyrrolidine-1-sulfonamide] | 50 to 500 | 35 to 70 | 1 to 10 | > 70 | – | – |
